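These data come from cells grown in 96-well plates and exposed to compound for 48 hours at five concentrations. Definition used: TGI = concentration required for complete inhibition of growth.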
Tests used:
Experiment in all cases: inhibition of tumour cell growth, NCI panel, 48 h
SK-MEL-2 melanoma = system: SK-MEL-2 melanoma
RPMI-8226 leukemia = system: RPMI-8226 leukemia
NCI-H23 lung = system: NCI-H23 lung
A549 NSCLC = system: A549 NSCLC
DU-145 prostate = system: DU-145 prostate
HOP-62 NSCLC = system: HOP-62 NSCLC
HOP-92 NSCLC = system: HOP-92 NSCLC
NCI-H460 lung = system: NCI-H460 lung
HS 578T breast = system: HS 578T breast
U251 CNS = system: U251 CNS
A498 renal = system: A498 renal
SN12C renal = system: SN12C renal

Row | SMILES | TGI (SK-MEL-2 melanoma) [µM] | TGI (RPMI-8226 leukemia) [µM] | TGI (NCI-H23 lung) [µM] | TGI (A549 NSCLC) [µM] | TGI (DU-145 prostate) [µM] | TGI (HOP-62 NSCLC) [µM] | TGI (HOP-92 NSCLC) [µM] | TGI (NCI-H460 lung) [µM] | TGI (HS 578T breast) [µM] | TGI (U251 CNS) [µM] | TGI (A498 renal) [µM] | TGI (SN12C renal) [µM]
1 | COc1cc(/C=N/NC2=NCCCCN2)ccc1O | > 100 | > 100 | > 100 | > 100 | > 100 | > 100 | > 100 | > 100 | > 100 | > 100 | > 100 | > 100
2 | COC(=O)/C(C#N)=C(\N)c1c(C)c2ccccc2oc1=N | > 100 | > 100 |  | > 100 | > 100 | > 100 | > 100 | > 100 | > 100 | > 100 | > 100 | > 100
3 | C#CC1NC(=O)C1N(CC)CC (stereo unspecified) | > 100 | > 100 | > 100 |  | > 100 | > 100 | > 100 | > 100 | > 100 | > 100 | > 100 | > 100
4 | CC1CN=C(Nc2ccc(F)c(Cl)c2)S1 (stereo unspecified) | > 100 | > 100 | > 100 | > 100 | > 100 | > 100 | > 100 | > 100 | > 100 | > 100 | > 100 | 
5 | O=C(C/C=C/c1ccccc1)c1ccccc1 |  | 83.5 | 31.6 | 26 | 31 | 73.7 | > 100 | 60.6 | 58.6 | 29.9 | 36 | 60.9
6 | O=[N+]([O-])c1cccc(N=Nc2c(O)ccc3ccccc23)c1 | > 100 | > 100 | > 100 | > 100 | > 100 | > 100 | > 100 |  | > 100 | > 100 | > 100 | > 100
7 | CCOC(=O)c1cc(C2CCN(Cc3ccccc3)C2=S)c(C(=O)C=[N+]=[N-])[nH]1 (stereo unspecified) | 63 | > 100 | 53.4 | > 100 | > 100 | > 100 | > 100 | 64.1 | > 100 | > 100 | > 100 | 
8 | COC(=O)C1=NN2c3ccccc3CN([C@@H](C)c3ccccc3)C(=O)[C@@H]2[C@H]1c1ccccc1 | > 100 |  | > 100 | > 100 | > 100 | > 100 | > 100 | > 100 | > 100 | > 100 | > 100 | > 100
9 | CCCCc1ccc(C#CC#Cc2ccc(CCCC)s2)s1 |  | > 100 | > 100 |  | > 100 | > 100 | > 100 | > 100 | > 100 | > 100 | > 100 | > 100
10 | COC1=CC(=O)C2=C(C[C@@]3(C)C(=C2)C(CO)=CC[C@H]3O)C1=O |  | 44.5 | 48.7 | > 100 | > 100 | 49.6 | 24.5 | 60.7 | > 100 | 41.6 | > 100 | 32.8
11 | Cc1ccc(N2C(N)=C(C#N)C(C#N)(C#N)C2c2ccccc2)cc1 (stereo unspecified) | 38.2 | 32.1 | 38.1 | 38.2 | 28.2 | 36.9 | 21.8 |  | 76.7 | 31.6 | 35.7 | 30.9
12 | C=CC1(C)OC2(CCN(C(=O)OCC)CC2)OC1C (stereo unspecified) | > 100 | > 100 | > 100 | > 100 | > 100 | > 100 | > 100 | > 100 | > 100 | > 100 | > 100 | 
13 | CCCCOC(=O)c1cc(C(=CCC[C@H]2CC[C@@]3(C)[C@@H](CC[C@@H]4[C@@H]3CC[C@]3(C)[C@@H](C(C)CCCC(C)C)CC[C@@H]43)C2)c2cc(Cl)c(O)c(C(=O)OCCCC)c2)cc(Cl)c1O (stereo partly specified) | > 50 | > 50 | > 50 |  | > 50 | > 50 | > 50 | > 50 | > 50 | > 50 | > 50 | > 50
14 | COC1C(O)C(C)OC(OC2CCC3(C)C(CCC4C3C(O)CC3(C)C(C5=CC(=O)OC5)CCC43O)C2)C1O (stereo unspecified) | 1.59 | 0.793 | 0.308 | 0.192 | 0.173 | 0.473 | 3.33 | 0.777 | > 100 |  | 0.703 | 0.426
15 | COc1cc2c[n+](C)c3c(c2cc1OC)Cc1cc2c(cc1-3)OCO2 | > 100 | > 100 | > 100 | > 100 | > 100 | > 100 | > 100 |  | > 100 | > 100 | > 100 | > 100
16 | C/C(Cc1ccc2c(c1)OCO2)=N\NC(=O)C(C)Sc1nnc(SC(C)C(=O)N/N=C(\C)Cc2ccc3c(c2)OCO3)s1 (stereo unspecified) | > 100 | > 100 | > 100 | > 100 | > 100 | > 100 | > 100 | > 100 | > 100 | > 100 | > 100 | 

From PubChem BioAssay (NCI)
